Assay results as given in PubChem BioAssay AID330 (DTP/NCI, 2004).
Several values for one entry are separate records, joined by “and”; a condition that tells them apart may be missing. Identical values can stand only once. Inconclusive results and toxic doses are left out. Rule for the calls: active = survival T/C of 150% or more; inactive = T/C below 125% in these data.

System: P388 leukemia ip, CD2F1 mice, survival T/C
Assay: NCI In Vivo Anticancer Drug Screen. Data for tumor model P388 Leukemia (intraperitoneal) in CD2F1 (CDF1) mice
Settings: endpoint: median survival time, higher = longer survival
Summary of the method: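 Mice carrying the transplanted tumor received test compound or vehicle. Survival was recorded in each group, and the value is the treated-group measurement divided by that of the vehicle-treated control group.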

[1] = dose: 50.0 mg/kg/injection, schedule: Q01DX005 (ip), vehicle: Klucel (hydroxypropylcellulose) (HPC)
[2] = dose: 100.0 mg/kg/injection, schedule: Q01DX005 (ip), vehicle: Klucel (hydroxypropylcellulose) (HPC)
[3] = dose: 200.0 mg/kg/injection, schedule: Q01DX005 (ip), vehicle: Klucel (hydroxypropylcellulose) (HPC)
[4] = dose: 25.0 mg/kg/injection, schedule: Q01DX005 (ip), vehicle: saline with Tween-80
[5] = dose: 50.0 mg/kg/injection, schedule: Q01DX005 (ip), vehicle: saline with Tween-80
[6] = dose: 100.0 mg/kg/injection, schedule: Q01DX005 (ip), vehicle: saline with Tween-80
[7] = dose: 100.0 mg/kg/injection, schedule: Q01DX009 (ip), vehicle: Klucel (hydroxypropylcellulose) (HPC)
[8] = dose: 200.0 mg/kg/injection, schedule: Q01DX009 (ip), vehicle: Klucel (hydroxypropylcellulose) (HPC)
[9] = dose: 50.0 mg/kg/injection, schedule: Q01DX009 (ip), vehicle: Klucel (hydroxypropylcellulose) (HPC)
[10] = dose: 25.0 mg/kg/injection, schedule: Q01DX009 (ip), vehicle: Klucel (hydroxypropylcellulose) (HPC)

Measured: T/C

Cc1ccc(OCCCCBr)c(Br)c1
inactive: [1] 105 % of control | [2] 101 % of control | [3] 97 % of control

CC(C)(C)[Si](OC(=O)CCCc1ccc(N(CCCl)CCCl)cc1)(c1ccccc1)c1ccccc1
inactive: [4] 123 % of control
active: [5] 155 % of control and 175 % of control | [6] 255 % of control

CC(C)NC(=O)OCc1c(COC(=O)NC(C)C)c2n(c1-c1ccc(Cl)c(Cl)c1)CCS2=O (centres undefined)
inactive: [4] 100 % of control | [5] 97 % of control | [6] 87 % of control

C[C@]12C=CC(=O)C=C1CC[C@@H]1[C@@H]2CC[C@@]2(C)[C@H]1CC[C@]2(C)O
inactive: [5] 97 % of control | [6] 95 % of control | [7] 110 % of control | [8] 90 % of control

Nc1ccc(CCCCc2ccc(S(=O)(=O)F)cc2Cl)c(Cl)c1
inactive: dose: 15.0 mg/kg/injection, schedule: Q01DX005 (ip), vehicle: saline with Tween-80 101 % of control | dose: 30.0 mg/kg/injection, schedule: Q01DX005 (ip), vehicle: saline with Tween-80 118 % of control | dose: 50.0 mg/kg/injection, schedule: Q01DX009 (ip), vehicle: saline with Tween-80 91 % of control | dose: 60.0 mg/kg/injection, schedule: Q01DX005 (ip), vehicle: saline with Tween-80 93 % of control | dose: 100.0 mg/kg/injection, schedule: Q01DX009 (ip), vehicle: saline with Tween-80 99 % of control | dose: 120.0 mg/kg/injection, schedule: Q01DX005 (ip), vehicle: saline with Tween-80 87 % of control | dose: 200.0 mg/kg/injection, schedule: Q01DX009 (ip), vehicle: saline with Tween-80 98 % of control | dose: 240.0 mg/kg/injection, schedule: Q01DX005 (ip), vehicle: saline with Tween-80 92 % of control

COc1cccc2c1C(=O)c1c(O)c3c(c(O)c1C2=O)C[C@@](O)(/C(C)=N\NC=O)C[C@@H]3OC1CC(N)C(O)C(C)O1 (some centres undefined)
active: dose: 0.65 mg/kg/injection, schedule: Q01DX009 (ip), vehicle: saline 150 % of control | dose: 1.08 mg/kg/injection, schedule: Q01DX009 (ip), vehicle: saline 150 % of control | dose: 1.8 mg/kg/injection, schedule: Q01DX009 (ip), vehicle: saline 159 % of control | dose: 3.0 mg/kg/injection, schedule: Q01DX009 (ip), vehicle: saline 163 % of control | dose: 3.0 mg/kg/injection, schedule: Q04DX003 (ip), vehicle: saline 150 % of control | dose: 5.0 mg/kg/injection, schedule: Q01DX009 (ip), vehicle: saline 163 % of control | dose: 5.0 mg/kg/injection, schedule: Q04DX003 (ip), vehicle: saline 154 % of control | dose: 8.0 mg/kg/injection, schedule: Q01DX001 (ip), vehicle: saline 154 % of control | dose: 8.0 mg/kg/injection, schedule: Q01DX009 (ip), vehicle: saline 177 % of control | dose: 8.0 mg/kg/injection, schedule: Q04DX003 (ip), vehicle: saline 172 % of control | dose: 13.3 mg/kg/injection, schedule: Q01DX001 (ip), vehicle: saline 154 % of control | dose: 22.2 mg/kg/injection, schedule: Q01DX001 (ip), vehicle: saline 172 % of control | dose: 22.2 mg/kg/injection, schedule: Q04DX003 (ip), vehicle: saline 190 % of control | dose: 37.0 mg/kg/injection, schedule: Q01DX001 (ip), vehicle: saline 181 % of control

COC1=CC(=O)C(OC)=C(OC)C1=O
inactive: dose: 22.0 mg/kg/injection, schedule: Q01DX009 (ip), vehicle: saline with Tween-80 112 % of control | dose: 33.0 mg/kg/injection, schedule: Q01DX009 (ip), vehicle: saline with Tween-80 123 % of control | dose: 75.0 mg/kg/injection, schedule: Q01DX009 (ip), vehicle: saline with Tween-80 104 % of control

O=c1c2ccccc2sc2c([N+](=O)[O-])ccc(NCCC3CCCN4CCCCC34)c12 (centres undefined)
inactive: dose: 44.5 mg/kg/injection, schedule: Q01DX005 (ip), vehicle: saline with Tween-80 95 % of control | dose: 89.0 mg/kg/injection, schedule: Q01DX005 (ip), vehicle: saline with Tween-80 94 % of control | dose: 178.0 mg/kg/injection, schedule: Q01DX005 (ip), vehicle: saline with Tween-80 96 % of control | dose: 356.0 mg/kg/injection, schedule: Q01DX005 (ip), vehicle: saline with Tween-80 100 % of control

Cc1cnc(C2OCCO2)c2cccc([N+](=O)[O-])c12
inactive: [9] 105 % of control | [7] 105 % of control | [8] 101 % of control

CN=C(N)N/N=C(\C)c1ccc(Cl)c(Cl)c1
inactive: dose: 25.0 mg/kg/injection, schedule: Q04DX002 (ip), vehicle: saline with Tween-80 100 % of control | dose: 50.0 mg/kg/injection, schedule: Q04DX002 (ip), vehicle: saline with Tween-80 99 % of control

Cc1cccn2cnnc12
inactive: dose: 50.0 mg/kg/injection, schedule: Q01DX009 (ip), vehicle: saline 119 % of control | dose: 100.0 mg/kg/injection, schedule: Q01DX009 (ip), vehicle: saline 119 % of control | dose: 200.0 mg/kg/injection, schedule: Q01DX009 (ip), vehicle: saline 117 % of control

CN(C)CCNc1ccccc1[N+](=O)[O-]
inactive: dose: 12.5 mg/kg/injection, schedule: Q01DX001 (ip), vehicle: saline 100 % of control | dose: 25.0 mg/kg/injection, schedule: Q01DX001 (ip), vehicle: saline 100 % of control | dose: 50.0 mg/kg/injection, schedule: Q01DX001 (ip), vehicle: saline 100 % of control

COc1cc2c(cc1Cc1ccc3c(c1)OCO3)OCO2
inactive: [1] 94 % of control | [2] 92 % of control | [3] 89 % of control

CCn1c(=O)c2[nH]c(Br)nc2n(CC)c1=O
inactive: dose: 12.5 mg/kg/injection, schedule: Q01DX009 (ip), vehicle: Klucel (hydroxypropylcellulose) (HPC) 124 % of control | dose: 16.0 mg/kg/injection, schedule: Q01DX009 (ip), vehicle: Klucel (hydroxypropylcellulose) (HPC) 106 % of control | [10] 103 % of control and 97 % of control | dose: 32.0 mg/kg/injection, schedule: Q01DX009 (ip), vehicle: Klucel (hydroxypropylcellulose) (HPC) 104 % of control | [9] 105 % of control and 95 % of control | dose: 64.0 mg/kg/injection, schedule: Q01DX009 (ip), vehicle: Klucel (hydroxypropylcellulose) (HPC) 114 % of control | [7] 98 % of control and 103 % of control

CCCCCCCCCCCCCCCCCC[n+]1cccc(C2CCCN2C)c1 (centres undefined) (tested in a mixture with another compound)
inactive: [10] 104 % of control

CSc1nc(N)c(C#N)c(SC)c1C#N
inactive: dose: 50.0 mg/kg/injection, schedule: Q04DX003 (ip), vehicle: saline 98 % of control | dose: 100.0 mg/kg/injection, schedule: Q04DX003 (ip), vehicle: saline 112 % of control | dose: 200.0 mg/kg/injection, schedule: Q04DX003 (ip), vehicle: saline 101 % of control

Cc1ccc(S(=O)(=O)OCCN(CCN(CCOS(=O)(=O)c2ccc(C)cc2)c2ccccc2)c2ccccc2)cc1
inactive: dose: 100.0 mg/kg/injection, schedule: Q04DX003 (ip), vehicle: Klucel (hydroxypropylcellulose) (HPC) 99 % of control | dose: 200.0 mg/kg/injection, schedule: Q04DX003 (ip), vehicle: Klucel (hydroxypropylcellulose) (HPC) 110 % of control | dose: 400.0 mg/kg/injection, schedule: Q04DX003 (ip), vehicle: Klucel (hydroxypropylcellulose) (HPC) 101 % of control

CC(C)N(CCn1cnc2c(N)ncnc21)C(C)C
inactive: [1] 100 % of control | [2] 97 % of control

CCC(C)Nc1ccc(N)cc1 (centres undefined)
inactive: dose: 0.1 mg/kg/injection, schedule: Q01DX009 (ip), vehicle: carboxymethylcellulose (CMC) 115 % of control | dose: 0.39 mg/kg/injection, schedule: Q01DX009 (ip), vehicle: Klucel (hydroxypropylcellulose) (HPC) 95 % of control | dose: 0.4 mg/kg/injection, schedule: Q01DX009 (ip), vehicle: carboxymethylcellulose (CMC) 111 % of control | dose: 0.78 mg/kg/injection, schedule: Q01DX009 (ip), vehicle: Klucel (hydroxypropylcellulose) (HPC) 102 % of control | dose: 1.56 mg/kg/injection, schedule: Q01DX009 (ip), vehicle: Klucel (hydroxypropylcellulose) (HPC) 104 % of control and 110 % of control | dose: 3.12 mg/kg/injection, schedule: Q01DX009 (ip), vehicle: Klucel (hydroxypropylcellulose) (HPC) 100 % of control and 119 % of control | dose: 6.25 mg/kg/injection, schedule: Q01DX009 (ip), vehicle: Klucel (hydroxypropylcellulose) (HPC) 108 % of control and 112 % of control
